Data reported in patent US10730887B2, “Compound containing tricyclic heteroaryl group” (Hangzhou Innogate Pharma Co., Ltd., priority 2016, dated 2020).

Key:
Assay type in all cases: biochemical
FLT3 = target: T1, FLT3 (Homo sapiens, UniProt P36888); assay: FLT3 kinase activity inhibition, Caliper mobility shift assay
T1 sequence (P36888 27-993): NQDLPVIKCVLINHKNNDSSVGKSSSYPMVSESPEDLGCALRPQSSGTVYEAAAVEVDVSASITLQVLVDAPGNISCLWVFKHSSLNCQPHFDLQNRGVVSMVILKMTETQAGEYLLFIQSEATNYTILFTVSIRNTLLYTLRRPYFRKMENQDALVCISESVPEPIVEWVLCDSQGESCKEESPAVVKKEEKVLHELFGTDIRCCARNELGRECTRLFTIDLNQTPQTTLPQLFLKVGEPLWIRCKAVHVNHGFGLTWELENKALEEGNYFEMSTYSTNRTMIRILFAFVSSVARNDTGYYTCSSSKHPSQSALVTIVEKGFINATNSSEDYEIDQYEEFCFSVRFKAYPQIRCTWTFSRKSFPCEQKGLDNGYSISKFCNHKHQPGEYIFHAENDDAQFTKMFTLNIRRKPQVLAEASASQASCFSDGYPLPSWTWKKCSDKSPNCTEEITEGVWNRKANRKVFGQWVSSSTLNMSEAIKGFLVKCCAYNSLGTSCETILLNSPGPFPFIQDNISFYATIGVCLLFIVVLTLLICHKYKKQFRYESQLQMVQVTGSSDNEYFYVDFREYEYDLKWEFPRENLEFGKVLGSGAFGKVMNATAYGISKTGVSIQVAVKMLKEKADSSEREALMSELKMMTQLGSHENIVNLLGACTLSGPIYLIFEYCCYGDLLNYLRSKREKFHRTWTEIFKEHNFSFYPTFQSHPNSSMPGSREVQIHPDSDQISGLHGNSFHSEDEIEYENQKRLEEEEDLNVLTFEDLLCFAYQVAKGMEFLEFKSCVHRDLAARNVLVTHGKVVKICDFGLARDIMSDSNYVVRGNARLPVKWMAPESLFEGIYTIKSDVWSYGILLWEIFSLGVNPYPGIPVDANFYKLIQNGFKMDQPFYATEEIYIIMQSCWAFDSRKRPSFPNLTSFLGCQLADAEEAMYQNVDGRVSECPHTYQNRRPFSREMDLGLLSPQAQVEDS
Method: FLT3 protein kinase activity was measured using the Caliper mobility shift assay. The compound was dissolved in DMSO and diluted with a kinase buffer (50 mM HEPES, pH 7.5, 0.0015% Brij-35, 2 mM DTT), and 5 μL of a 5-fold final concentration of the compound (10% DMSO) was added to a 384-well plate. After adding 10 μL of 2.5-fold FLT3 enzyme solution, incubate for 10 minutes at room temperature, and then add 10 μL of a 2.5-fold substrate (FAM-labeled polypeptide and ATP) solution. After incubation at 28° C. for 60 minutes, the reaction was stopped by adding 25 μL of stop solution (100 mM HEPES, 0.015% Brij-35, 0.2% Coating Reagent #3, 50 mM EDTA, pH 7.5). Conversion rate data was read on a Caliper EZ Reader II (Caliper Life Sciences). The conversion rate was converted into inhibition rate data (% inhibition rate=(max−conversion rate)/(max−min)*100). Where max is the conversion of the DMSO control and min is the conversion of the enzyme-free control Curves were plotted with compound concentration and inhibition rate on the horizontal and vertical coordinates, and the curve was fitted using XLFit excel add-in version 4.3.1 software and IC50 was calculated.

EGFR (T790M/L858R) = EGFR (T790M/L858R) (Homo sapiens, UniProt P00533, L858R/T790M); assay: EGFR (T790M/L858R) kinase activity inhibition, Caliper mobility shift assay
Method: (§1) EGFR and EGFR (T790M/L858R) protein kinase activities were determined using the Caliper mobility shift assay. The compound was dissolved in DMSO and diluted with kinase buffer (EGFR (T790M/L858R): 50 mM HEPES at pH 7.5, 0.0015% Brij-35, 10 mM MgCl2, 2 mM DTT; EGFR: pH 7.5 50 mM HEPES, 0.0015% Brij-35, 10 mM MgCl2, 10 mM MnCl2, 2 mM DTT), 5 μL of 5 times the final concentration of the compound (10% DMSO) was added to a 384-well plate. Add 10 μL of 2.5-fold enzyme (using EGFR and EGFR (1790M/L858R), respectively) and incubate for 10 minutes at room temperature, then add 10 μL of 2.5-fold substrate (Peptide FAM-P22 and ATP) solution. After incubation at 28° C. for 60 minutes, the reaction was stopped by adding 25 μL of stop solution (100 mM HEPES, 0.015% Brij-35, 0.2% Coating Reagent #3, 50 mM EDTA, pH 7.5). Conversion rate data was read on a Caliper EZ Reader II (Caliper Life Sciences). The conversion rate was converted into inhibition rate data (% inhibition rate=(max−conversion rate)/(max−min)*100). Where max is the conversion of the DMSO control and min is the conversion of the enzyme-free control Curves were plotted with compound concentration and inhibition rate on the horizontal and vertical coordinates, and the curve was fitted using XLFit excel add-in version 4.3.1 software and IC50 was calculated.

EGFR = EGFR (Homo sapiens, UniProt P00533); assay: EGFR kinase activity inhibition, Caliper mobility shift assay
Method: as §1

SYK = SYK (Homo sapiens, UniProt P43405); assay: Syk kinase activity inhibition, Caliper mobility shift assay
Method: SYK protein kinase activity was determined using the Caliper mobility shift assay. The compound was dissolved in DMSO and diluted with kinase buffer (20 mM HEPES, 0.01% Triton X-100, 5 mM MgCl2, 1 mM MnCl2, 2 mM DTT), and 5 μL of 5 times final concentration was added to the 384-well plate Compound (10% DMSO). After adding 10 μL of 2.5-fold enzyme (with SYK) solution, incubate for 10 minutes at room temperature, and then add 10 μL of 2.5-fold substrate (Peptide FAM-P22 and ATP) solution. Incubate at 28° C. for 30 minutes, then stop the reaction by adding 25 μL of stop solution (100 mM HEPES, 0.015% Brij-35, 0.2% Coating Reagent #13, 50 mM EDTA, pH 7.5). Conversion rate data was read on a Caliper EZ Reader II (Caliper Life Sciences) The conversion rate was converted into inhibition rate data (% inhibition rate=(max−conversion rate)/(max−min)*100). Where max is the conversion of the DMSO control and min is the conversion of the enzyme-free control. Curves were plotted with compound concentration and inhibition rate on the horizontal and vertical coordinates, and the curve was fitted using XLFit excel add-in version 4.3.1 software and IC50 was calculated.

Jak2 = Jak2 (Homo sapiens, UniProt O60674); assay: Jak2 kinase activity inhibition, Caliper Reader
Method: Kinase JAk1 and Jak2 enzyme inhibition IC50 evaluation experiments: The buffer was configured with the following components: 50 mM HEPES, pH 7.5, 0.00015% Brij-35. Compounds were placed in a concentration gradient in 100% DMSO and diluted to 10% DMSO with buffer and added to 384 well plates. For example, when the initial concentration of the compound is […], it is made into 12.5 μM with 100% DMSO, and diluted by 5 or 6 concentrations, and then diluted 10-fold with buffer to prepare an intermediate dilution of the compound containing 10% DMSO. Transfer 5 μL, to 384-well plate. The Jak1 and Jak2 enzymes were diluted to the optimal concentration with the following buffer: 50 mM HEPES, pH 7.5, 0.00015% Brij-35, 2 mM DTT. Transfer 10 μL to a 384-well plate and incubate with the compound for 10-15 minutes. The substrate was diluted to the optimal concentration with the following buffer: 50 mM HEPES, pH 7.5, 0.00015% Brij-35, 10 mM MgCl2, adenosine triphosphate at Km. The reaction was initiated by adding 10 μL to a 384-well plate and reacted at 28° C. for 1 hour. The conversion rate was then read using a Caliper Reader and the inhibition rate was calculated. The formula is as follows: Percent inhibition=(max−conversion)/(max−min)*100. Where max is the conversion of the DMSO control and min is the conversion of the enzyme-free control. Fit the IC50 value with XLFit excel add-in version 5.4.0.8. Fitting formula: Y=Bottom+(Top−Bottom)/(1+(IC50/X)^HillSlope).

Chain of Jak2 (O60674 whole entry, species assumed): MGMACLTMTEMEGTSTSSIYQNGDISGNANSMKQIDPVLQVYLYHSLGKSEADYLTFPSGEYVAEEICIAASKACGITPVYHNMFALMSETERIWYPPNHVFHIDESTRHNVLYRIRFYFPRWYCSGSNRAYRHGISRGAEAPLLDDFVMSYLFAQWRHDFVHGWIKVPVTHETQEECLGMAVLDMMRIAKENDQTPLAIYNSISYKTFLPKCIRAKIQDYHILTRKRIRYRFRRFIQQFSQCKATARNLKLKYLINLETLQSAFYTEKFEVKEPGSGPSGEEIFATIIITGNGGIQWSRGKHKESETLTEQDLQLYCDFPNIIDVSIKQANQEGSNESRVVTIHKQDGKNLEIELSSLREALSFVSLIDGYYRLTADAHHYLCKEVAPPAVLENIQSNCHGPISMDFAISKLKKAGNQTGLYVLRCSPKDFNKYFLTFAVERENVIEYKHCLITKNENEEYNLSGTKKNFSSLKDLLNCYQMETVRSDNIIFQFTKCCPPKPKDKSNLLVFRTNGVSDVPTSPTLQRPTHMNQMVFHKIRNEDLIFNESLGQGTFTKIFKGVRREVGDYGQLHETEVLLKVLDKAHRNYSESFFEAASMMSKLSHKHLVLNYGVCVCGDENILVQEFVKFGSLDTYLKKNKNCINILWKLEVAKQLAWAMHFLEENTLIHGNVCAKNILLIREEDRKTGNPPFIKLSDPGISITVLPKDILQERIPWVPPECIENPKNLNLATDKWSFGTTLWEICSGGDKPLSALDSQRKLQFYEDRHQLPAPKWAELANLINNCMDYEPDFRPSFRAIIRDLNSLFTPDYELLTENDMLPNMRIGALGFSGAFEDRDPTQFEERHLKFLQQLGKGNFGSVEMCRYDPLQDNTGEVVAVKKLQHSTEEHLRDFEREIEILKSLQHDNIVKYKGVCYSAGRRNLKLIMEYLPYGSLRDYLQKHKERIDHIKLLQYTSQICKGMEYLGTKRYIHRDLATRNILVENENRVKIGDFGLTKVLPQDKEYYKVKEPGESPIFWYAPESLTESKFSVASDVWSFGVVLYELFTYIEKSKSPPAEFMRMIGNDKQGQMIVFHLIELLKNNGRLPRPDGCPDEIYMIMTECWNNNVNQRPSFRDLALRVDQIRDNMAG
Chain of EGFR (P00533 25-1210): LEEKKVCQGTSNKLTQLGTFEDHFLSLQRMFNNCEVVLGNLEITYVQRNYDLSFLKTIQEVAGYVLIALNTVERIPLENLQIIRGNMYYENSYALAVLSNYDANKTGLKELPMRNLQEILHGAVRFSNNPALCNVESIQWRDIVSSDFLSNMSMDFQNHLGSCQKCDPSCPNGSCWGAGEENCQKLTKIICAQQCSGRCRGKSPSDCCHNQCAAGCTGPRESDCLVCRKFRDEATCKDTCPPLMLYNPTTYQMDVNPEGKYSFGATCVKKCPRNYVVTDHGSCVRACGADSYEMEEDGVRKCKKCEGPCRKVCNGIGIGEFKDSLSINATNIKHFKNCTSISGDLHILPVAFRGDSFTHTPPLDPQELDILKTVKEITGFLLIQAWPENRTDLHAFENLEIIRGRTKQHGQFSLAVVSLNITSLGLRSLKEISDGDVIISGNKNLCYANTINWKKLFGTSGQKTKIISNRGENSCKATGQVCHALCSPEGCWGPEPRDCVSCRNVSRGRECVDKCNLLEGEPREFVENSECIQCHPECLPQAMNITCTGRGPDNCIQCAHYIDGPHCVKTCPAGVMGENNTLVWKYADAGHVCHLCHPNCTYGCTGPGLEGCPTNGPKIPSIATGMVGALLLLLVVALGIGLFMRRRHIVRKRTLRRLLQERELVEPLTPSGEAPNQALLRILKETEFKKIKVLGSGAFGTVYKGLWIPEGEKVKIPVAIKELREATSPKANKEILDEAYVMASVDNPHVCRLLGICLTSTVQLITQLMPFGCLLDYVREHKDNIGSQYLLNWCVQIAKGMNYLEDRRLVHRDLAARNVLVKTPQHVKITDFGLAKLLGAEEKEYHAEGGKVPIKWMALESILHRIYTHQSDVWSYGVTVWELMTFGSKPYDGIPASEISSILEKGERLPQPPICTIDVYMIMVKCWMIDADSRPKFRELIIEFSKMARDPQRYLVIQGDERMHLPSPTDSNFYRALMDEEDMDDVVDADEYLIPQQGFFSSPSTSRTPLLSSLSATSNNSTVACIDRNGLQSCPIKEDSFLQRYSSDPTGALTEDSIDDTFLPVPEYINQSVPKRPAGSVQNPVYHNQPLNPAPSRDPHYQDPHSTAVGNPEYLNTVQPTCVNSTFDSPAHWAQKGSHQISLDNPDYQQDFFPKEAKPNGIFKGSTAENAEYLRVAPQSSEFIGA
Chain of EGFR (T790M/L858R) (P00533 25-1210 T790M/L858R): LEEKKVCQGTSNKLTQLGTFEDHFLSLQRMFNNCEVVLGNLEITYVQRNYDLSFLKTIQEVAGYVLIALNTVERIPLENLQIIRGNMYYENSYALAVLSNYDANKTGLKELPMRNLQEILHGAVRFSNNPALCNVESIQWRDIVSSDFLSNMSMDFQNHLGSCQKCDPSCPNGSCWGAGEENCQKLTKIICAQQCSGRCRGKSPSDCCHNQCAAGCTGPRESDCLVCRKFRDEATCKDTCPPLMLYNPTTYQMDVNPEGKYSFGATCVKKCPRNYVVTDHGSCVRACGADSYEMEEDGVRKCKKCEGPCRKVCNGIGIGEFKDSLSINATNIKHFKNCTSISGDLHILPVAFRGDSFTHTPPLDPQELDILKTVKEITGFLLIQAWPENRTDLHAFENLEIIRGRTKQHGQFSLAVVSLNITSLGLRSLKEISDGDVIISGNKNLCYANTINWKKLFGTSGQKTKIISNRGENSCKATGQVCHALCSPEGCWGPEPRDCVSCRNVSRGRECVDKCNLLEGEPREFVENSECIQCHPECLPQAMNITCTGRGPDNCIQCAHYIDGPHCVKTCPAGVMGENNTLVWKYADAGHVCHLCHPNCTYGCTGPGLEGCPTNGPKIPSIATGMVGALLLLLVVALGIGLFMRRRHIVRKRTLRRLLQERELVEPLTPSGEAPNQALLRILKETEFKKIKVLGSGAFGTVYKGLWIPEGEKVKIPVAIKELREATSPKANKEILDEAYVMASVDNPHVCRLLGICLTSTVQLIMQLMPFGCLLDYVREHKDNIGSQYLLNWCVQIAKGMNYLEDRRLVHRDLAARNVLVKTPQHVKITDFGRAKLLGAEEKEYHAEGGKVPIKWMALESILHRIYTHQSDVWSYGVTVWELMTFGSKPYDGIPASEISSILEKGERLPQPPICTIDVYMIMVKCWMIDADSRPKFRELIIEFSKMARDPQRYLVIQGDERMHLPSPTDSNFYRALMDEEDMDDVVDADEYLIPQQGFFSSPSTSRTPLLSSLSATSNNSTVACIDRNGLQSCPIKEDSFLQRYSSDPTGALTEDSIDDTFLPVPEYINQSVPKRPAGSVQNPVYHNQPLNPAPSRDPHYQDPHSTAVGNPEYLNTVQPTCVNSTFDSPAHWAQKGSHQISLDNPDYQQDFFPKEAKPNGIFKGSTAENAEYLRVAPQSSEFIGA

Compound | IC50 (FLT3) | IC50 (EGFR (T790M/L858R)) | IC50 (EGFR) | IC50 (SYK) | IC50 (Jak2)
CCc1nc(C(N)=O)c(Nc2ccc3c(c2)OC[C@H]2CN(CC(F)(F)F)CCN32)nc1NC1CCOCC1 [Compound D3R] | < 10 nM |  |  |  | 
C=CC(=O)Nc1cccc(Nc2nc(Nc3ccc4c(c3)OC[C@H]3CN(C)CC(=O)N43)ncc2C(F)(F)F)c1 [Compound A9R] |  | < 10 nM | < 100 nM |  | 
CS(=O)(=O)N1CCN2c3ccc(Nc4ncc(C(N)=O)c(NC5CC5)n4)cc3OC[C@H]2C1 [Compound C11R] |  |  |  | < 10 nM | < 10 nM
C=CS(=O)(=O)N1CCN2c3ccc(Nc4ncc(C(N)=O)c(NC5CC5)n4)cc3OC[C@H]2C1 [Compound C15R] |  |  |  | < 50 nM | < 50 nM
C=CC(=O)Nc1cccc(Nc2nc(Nc3ccc4c(c3)OC[C@H]3COCCN43)ncc2C(F)(F)F)c1 [Compound A8R] |  | < 10 nM | < 100 nM |  | 
C=CC(=O)Nc1cccc(Nc2nc(Nc3ccc4c(c3)OC[C@H]3CN(CC(F)(F)F)CCN43)ncc2C(F)(F)F)c1 [Compound A7R] |  | < 50 nM | < 500 nM |  | 
C=CC(=O)Nc1cccc(Nc2nc(Nc3ccc4c(c3)OC[C@@H]3CNCCN43)ncc2C(F)(F)F)c1 [Compound A3S] |  | < 1 nM |  |  | 
C=CC(=O)Nc1cccc(Nc2nc(Nc3ccc4c(c3)OC[C@H]3CN(C)CCN43)ncc2C(F)(F)F)c1 [Compound A1R] |  | < 1 nM | < 100 nM |  | 
C=CC(=O)Nc1cccc(Nc2nc(Nc3ccc4c(c3)OCC3CN(C)CCN43)ncc2C(F)(F)F)c1 (stereo not shown) [Compound A1] |  | < 10 nM | < 100 nM |  | 
C=CC(=O)Nc1cccc(Nc2nc(Nc3ccc4c(c3)OC[C@H]3CN(C(C)=O)CCN43)ncc2C(F)(F)F)c1 [Compound A2R] |  | < 10 nM | < 100 nM |  | 
CC(C)S(=O)(=O)N1CCN2c3ccc(Nc4ncc(C(N)=O)c(NC5CC5)n4)cc3OC[C@H]2C1 [Compound C12R] |  |  |  | < 10 nM | < 10 nM
NC(=O)c1cnc(Nc2ccc3c(c2)OC[C@H]2CN(S(=O)(=O)c4ccccc4)CCN32)nc1NC1CC1 [Compound C9R] |  |  |  | < 10 nM | < 50 nM
C=CC(=O)Nc1cccc(Nc2nc(Nc3ccc4c(c3)OC[C@H]3CN(CC)CCN43)ncc2C(F)(F)F)c1 [Compound A5R] |  | < 1 nM | < 100 nM |  | 
C=CC(=O)Nc1cccc(Nc2nc(Nc3ccc4c(c3)OC[C@@H]3CN(C)CCN43)ncc2C(F)(F)F)c1 [Compound A1S] |  | < 1 nM | < 100 nM |  | 
NC(=O)c1cnc(Nc2ccc3c(c2)OCC2COCCN32)nc1NC1CC1 (stereo not shown) [Compound C18R] |  |  |  | < 50 nM | < 50 nM
CN1CCN2c3ccc(Nc4ncc(C(N)=O)c(NC5CC5)n4)cc3C(=O)CC2C1 (stereo not shown) [Compound C17] |  |  |  | < 50 nM | < 50 nM
C=CC(=O)Nc1cccc(Nc2nc(Nc3ccc4c(c3)OC[C@@H]3CN(C(C)=O)CCN43)ncc2C(F)(F)F)c1 [Compound A2S] |  | < 10 nM | < 100 nM |  | 
NC(=O)c1cnc(Nc2ccc3c(c2)OC[C@H]2CN(S(=O)(=O)C4CCOCC4)CCN32)nc1NC1CC1 [Compound C13R] |  |  |  | < 10 nM | < 10 nM
CN(C)S(=O)(=O)N1CCN2c3ccc(Nc4ncc(C(N)=O)c(NC5CC5)n4)cc3OC[C@H]2C1 [Compound C14R] |  |  |  | < 10 nM | < 10 nM
NC(=O)c1cnc(Nc2ccc3c(c2)OC[C@H]2CN(S(N)(=O)=O)CCN32)nc1NC1CC1 [Compound C16R] |  |  |  | < 50 nM | < 50 nM
NC(=O)c1cnc(Nc2ccc3c(c2)OC[C@H]2CNCCN32)nc1NC1CC1 [Compound C8R] |  |  |  | < 50 nM | < 10 nM
C=CC(=O)Nc1cccc(Nc2nc(Nc3ccc4c(c3)OC[C@@H]3CN(C)CC(=O)N43)ncc2C(F)(F)F)c1 [Compound A9S] |  | < 10 nM | < 100 nM |  | 
C=CC(=O)Nc1cccc(Nc2nc(Nc3ccc4c(c3)OC[C@H]3CN(C5CC5)CCN43)ncc2C(F)(F)F)c1 [Compound A6R] |  | < 10 nM | < 100 nM |  | 
CC(C)(C)OC(=O)N1CCN2c3ccc(Nc4ncc(C(N)=O)c(NC5CC5)n4)cc3OC[C@H]2C1 [Compound C7R] |  |  |  | < 50 nM | < 50 nM
C=CC(=O)Nc1cccc(Nc2nc(Nc3ccc4c(c3)OC[C@H]3CNCCN43)ncc2C(F)(F)F)c1 [Compound A3R] |  | < 1 nM | < 50 nM |  | 
C=CC(=O)Nc1cccc(Nc2nc(Nc3ccc4c(c3)OC[C@@H]3COCCN43)ncc2C(F)(F)F)c1 [Compound A8S] |  | < 10 nM | < 100 nM |  | 
C=CC(=O)Nc1cccc(Nc2nc(Nc3ccc4c(c3)OC[C@H]3CN(C(=O)C(F)(F)F)CCN43)ncc2C(F)(F)F)c1 [Compound A4R] |  | < 10 nM | < 100 nM |  | 
